Test results as given in paper PMC4838890, “Dynamic and flexible H3K9me3 bridging via HP1β dimerization establishes a plastic state of condensed chromatin” (Nature Communications, 2016).
Like-named read-outs stand apart in the source and are kept apart here.

Columns and labels:
[1] = test system: chromatin reporter array in U2OS cells; assay: Chromatin reporter array (LacO) unfolding; format: cell-based; details: doxycycline 1 μg ml^−1 24 h, LacI-tethered, n>300
From the text: Figure 7 hHP1β dimerization is required for maintaining condensed cellular chromatin states. (a) Schematic diagram of the transgene system used to test chromatin compaction effects of hHP1β. A tandem array of the construct has been integrated into the genome of U2OS mammalian cells. Dox, doxycycline; rtTA, reverse tetracycline-controlled TET-VP16 transactivator, whose binding to tetracycline responsive elements (RE) is activated by doxycycline. (b) Together with mCherry-LacI, the indicated fusion proteins were transiently expressed in U2OS cells containing the chromatin reporter array as described in a. Representative confocal images in the absence or after induction of transcription from the array with doxycycline (Dox) are shown. DNA was stained with DAPI. Inlets show enlarged chromatin reporter array; scale bar, 10 μm. (c) Quantification of the results shown in b together with results of similar experiments using additional hHP1β mutant proteins. Averages of three independent experiments are plotted; error bars represent s.d.; n>300 for each condition; asterisks represent P<0.05 according to Student's t-test.
U2OS 2-6-3 CLTon cells[38] were kindly provided by Dr Supriya Prasanth (University of Illinois, IL, USA) and maintained in DMEM (high glucose+GlutaMax) (GIBCO/Invitrogen, Darmstadt, Germany) supplemented with 10% (v/v) TET system approved fetal bovine serum (Clontech, Saint-Germain-en-Laye, France), 50 μg ml^−1 hygromycin (Carl Roth, Karlsruhe, Germany) and 200 μg ml^−1 G418 (Clontech, Saint-Germain-en-Laye, France). For fluorescence microscopy, cells were grown on coverslips in a six-well plate without antibiotics. 500 ng plasmid DNA was transfected using Lipofectamine LTX and Plus reagent (Invitrogen, Darmstadt, Germany). 20 h post transfection, cells were treated with 1 μg ml^−1 doxycycline for 24 h for induction of rtTA expression. Cells were washed twice with PBS and fixed with 3.7% (v/v) formaldehyde/PBS for 10 min at RT. […] P values (according to Student's t-test) were calculated using GraphPad QuickCals (GraphPad, CA, USA).

H3KC9me3 mononucleosome = assay: ITC, H3KC9me3 mononucleosome; format: binding, Xenopus laevis; details: for Kd: ITC, pH 7.5, 25°C, read-out: Kd (apparent dissociation constant)
From the text: Mononucleosomes were reconstituted on a 187 bp DNA fragment containing the ‘601' sequence flanked on each site by a linker of 20 bp[55]. Oligonucleosomes were reconstituted on a 12 × 200 bp × 601 template. Plasmids carrying the respective inserts were purified using a Giga kit (Qiagen, Hilden, Germany). Templates for reconstitution were released from plasmids by restriction digest with BsoBI for mononucleosomes and a mix of DdeI, BfuCI, HaeII and EcoRI for oligonucleosomes. To separate vector backbone from DNA used for chromatin assembly stepwise precipitation with polyethylene glycol (PEG) 6000/0.5 M NaCl was carried out (final PEG concentration 2–9% and 20% (w/v)). DNA pellets were washed with 70% (v/v) ethanol and dissolved in water. Double stranded, short, biotinylated DNA linkers were ligated to the DNA template before chromatin reconstitution.
ITC measurements were performed on a iTC200 calorimeter (Microcal, Malvern, UK) at 25°C in binding buffer (10 mM triethanolamine (pH 7.5), 20 or 150 mM NaCl, 0.1 mM EDTA). Reaction heats were recorded by sequences of 37 injections of 1.8 mM hHP1β, spaced at 120 s intervals, into 250 μl of 60 μM H3 peptides, nucleosomes or oligonucleosomal arrays under constant stirring at 1,000 r.p.m. (injection #1–10: 0.5 μl each; injection #11–32: 1 μl each; injection #33–37: 2 μl each). Heats of dilution, obtained by the titration of hHP1β into buffer, were substracted from raw data before analysis. Raw data were integrated, normalized and the apparent heat change (Δq) of the reaction was plotted against the molecular ratio using the Origin software. For the determination of apparent enthalpy changes (ΔHapp), the molar association constant (KA), and the stoichiometry (n) of the interaction, non-linear least-square fitting of the Δq values was performed by the Origin software using a binding model of one set of identical binding sites.
Supplementary Table 1: Summary of conditions used in the different experiments of this study.
experiment result modification template Temp. [NaCl] [MgCl2] […]

| Substance | unfolding of the array on activation [1] | Kd (H3KC9me3 mononucleosome; 20 mM NaCl) [µM] | Kd (H3KC9me3 mononucleosome; 150 mM NaCl) [µM] | better binding at the higher compared with the lower salt concentration (H3KC9me3 mononucleosome; 150 mM versus 20 mM NaCl) [fold] |
| --- | --- | --- | --- | --- |
| hHP1β I161A: CSD point mutant of hHP1β incapable of dimerization | largely reduced by tethering of LacI-YFP-hHP1β WT but not the dimerization deficient I161A mutant | 223 ± 30 | 58 ± 17 | – |
| hHP1β WT: recombinant human heterochromatin protein 1β (GenBank NM_001127228), 185 aa | largely reduced | 59 ± 8 | 22 ± 8 | 2.7 |
